PubChem BioAssay AID2327 (Broad Institute, 2010)
Records with an inconclusive call do not appear. Calls of active or inactive are those of the source.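 How the source made its calls: active means compound whose fitted EC50 for lowering fibroblast viability lies at most a set limit above the top dose tested; inconclusive means flat fit with 30 to 70% activity, or poor fit; inactive means the rest.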

Test system: NIH-3T3 fibroblast viability, Alamar Blue, 48 h, fluconazole
Assay: NIH-3T3 fibroblast cytotoxicity, dose response, cytotoxicity control, cell-based, fluorescence, Alamar Blue, secondary assay (AID 2327)

Row | SMILES | EC50
1 | CC1CCC(C(C)C)C(OC(=O)Cn2c(-c3ccc(Br)cc3)[n+](C)c3ccccc32)C1 (configuration not stated) | > 16 µM (inactive)
2 | C[C@]12CCC3[C@@H](CC[C@H]4C[C@@H](O)CC[C@]34C)C1CCC2=O (some centres not stated) | > 15 µM (inactive)
3 | NC(=NCCCCCCN=C(N)/N=C(\N)Nc1ccc(Cl)cc1)/N=C(\N)Nc1ccc(Cl)cc1 | > 16 µM (inactive)
4 | C[C@]12CC[C@H](O)C[C@@H]1CC[C@@H]1[C@@H]2CC[C@]2(C)C(=O)CC[C@@H]12 | > 16 µM (inactive)
5 | O=C1/C(=C/c2cccnc2)SC(=S)N1C1CCS(=O)(=O)C1 (configuration not stated) | > 15 µM (inactive)
6 | O=C1/C(=C\c2cccnc2)SC(=S)N1C1CCS(=O)(=O)C1 (configuration not stated) | > 16 µM (inactive)
7 | CC1CCC(C(C)C)C(OC(=O)C[n+]2cc(-c3ccc(Cl)cc3)n3c2CCCCC3)C1 (configuration not stated) | > 16 µM (inactive)
